Experimental data published in patent US20230092769A1 (SHANGHAI BENEMAE PHARMACEUTICAL CORPORATION, priority 2020, published 2023).
Values joined by “and” are separate entries in the source; they are usually repeats but may differ in a detail not shown here. Equal values may be shown once.

What was measured:
Format in all cases: in vivo
[1] = tested on: STZ-induced diabetic C57BL/6 mice; experiment: Blood glucose after single dosing in STZ-induced diabetic C57BL/6 mice (Example 2); conditions: for blood glucose 15 min / blood glucose 30 min / blood glucose 60 min / blood glucose 120 min / blood glucose 180 min / blood glucose 240 min / AUC(0-120 min) of blood glucose / blood glucose 0 min: single s.c. dose; for blood glucose 0 min: pre-dose
Protocol: Animals: Male C57BL/6 mice (n=70) were purchased from Shanghai Jihui Laboratory Animal Care Co., Ltd. Upon arrival, the mice were housed in an animal facility at Shanghai University of Medicine & Health Sciences, under constant temperature (20-24° C.) and humidity (40-70%). Housing was provided at 12:12-hour light-dark cycle.
Active agents: Insulin glargine was obtained from Sanofi and stored at a temperature of 2-8° C. Beinaglutide having the sequence of […](SEQ ID NO: 1) was obtained from Benemae (beinaglutide injection, 2 mg/mL) and stored at 2-8° C.
(§1) After one-week acclimation, the mice were fed with high fat diet with 60 kcal % fat (D12492, Research Diets) for 3 weeks before STZ injection. Diabetic model was induced with 5 consecutive days of multiple low-dose STZ injection (50 mg/kg, intraperitoneally; i.p.). During modeling period, the mice were fasted for 4 hours before STZ treatment each day. The STZ solution (5 mg/ml) was freshly prepared in 0.1 M sodium citrate buffer (pH 4.5) before use and injected within 10 minutes of preparation. Seven days later, the mice with non-fasted blood glucose between 16.7 mM and 27.7 mM were selected and randomized into different groups by blood glucose level and body weight. At 9 am (T=0 minute) of Day 1, the mice were subcutaneously administrated with vehicle, insulin glargine, beinaglutide, or a mixture of insulin glargine and beinaglutide, which were mixed immediately before injection (Table 3). After first injection, tail blood glucose levels were measured at various intervals after injection, at 15 minutes, 30 minutes, 60 minutes, 120 minutes, 180 minutes, and 240 minutes, respectively. Subsequently, the mice of four groups (No. 1, No. 2, No. 4, and No. 6) continued to receive multiple dosing for 4 weeks. Body weight was measured twice per week. On day 28, after blood glucose measurement, the mice were fasted for 6 hours from 9 am, followed by an oral glucose tolerance test (glucose solution: 1 g/kg, 10 ml/kg). The blood glucose was monitored at 0 minute (pre-glucose loading), 15 minutes, 30 minutes, 60 minutes and 120 minutes after glucose loading.

[2] = Body weight change during 4-week multiple dosing in STZ-induced diabetic C57BL/6 mice; conditions: for body weight change Day 0 / body weight change Day 4 / body weight change Day 7 / body weight change Day 8 / body weight change Day 10 / body weight change Day 12 / body weight change Day 14 / body weight change Day 16 / body weight change Day 18 / body weight change Day 20 / body weight change Day 22 / body weight change Day 24 / body weight change Day 26 / body weight change Day 28: IGlar 5 U/kg s.c., 1st week bid, 2nd to 4th week tid; for body weight change Day 0: baseline
Protocol: as §1

[3] = tested on: STZ-induced diabetic C57BL/6 mice; experiment: Fasting blood glucose on Day 28 after 6 hours fasting, STZ-induced diabetic C57BL/6 mice; conditions: Day 28, 6 hours fasting, IGlar 5 U/kg multiple dosing
Protocol: as §1, with “Subsequently, the mice of four groups (No. 1, No. 2, No. 4, and No. 6) continued to receive multiple dosing for 4 weeks.” left out, “On day 28, after blood glucose measurement, the mice were fasted for 6 hours from 9 am, followed by an oral glucose tolerance test (glucose solution: 1 g/kg, 10 ml/kg).” left out
On Day 28, the fasting blood glucose was measured after 6 hours fasting.

[4] = tested on: STZ-induced diabetic C57BL/6 mice; experiment: Oral glucose tolerance test (OGTT) on Day 28, STZ-induced diabetic C57BL/6 mice; design: OGTT blood glucose AUC: unit: mM·min
Protocol: The mice fasted for about 6 hours were orally administrated with glucose solution (1 g/kg). Blood glucose was measured at indicated time points.
as §1

[5] = Insulin glargine 5 U/kg, group MEAN, n=6
[6] = Insulin glargine 5 U/kg, group MEAN, n=6, listed as IGlar
[7] = Insulin glargine 5 U/kg, individual animal
[8] = Insulin glargine 10 U/kg, group MEAN, n=6
[9] = Insulin glargine 10 U/kg, group MEAN, n=6, listed as IGlar
[10] = Insulin glargine 10 U/kg, individual animal

Substance: insulin glargine
- blood glucose 15 min [1, 5]: 25.35 mM
- blood glucose 30 min [1, 5]: 16.95 mM
- blood glucose 60 min [1, 5]: 6.07 mM
- blood glucose 120 min [1, 5]: 7.02 mM
- blood glucose 180 min [1, 5]: 11.80 mM
- blood glucose 240 min [1, 5]: 18.83 mM
- AUC(0-120 min) of blood glucose ([1]; Insulin glargine 5 U/kg, group MEAN, n=6, in mM·min (unit assumed)): 2864
- AUC(0-120 min) of blood glucose [1, 6]: significant reduction of blood glucose
- blood glucose 60 min [1, 6]: 6.07 ± 0.43 mM
- blood glucose 15 min [1, 7]: 23.4 mM and 25.7 mM and 26.6 mM and 24.1 mM and 26.3 mM and 26 mM
- blood glucose 30 min [1, 7]: 19.7 mM and 8.7 mM and 17.9 mM and 16.6 mM and 21.2 mM and 17.6 mM
- blood glucose 60 min [1, 7]: 6.4 mM and 6.2 mM and 5.9 mM (2×) and 5.4 mM and 6.6 mM
- blood glucose 120 min [1, 7]: 5.6 mM and 7.5 mM and 12.2 mM and 4.4 mM and 7.8 mM and 4.6 mM
- blood glucose 180 min [1, 7]: 10.8 mM and 14.1 mM and 17.2 mM and 8.9 mM and 11.5 mM and 8.3 mM
- blood glucose 240 min [1, 7]: 18.8 mM and 23.2 mM and 23.5 mM and 16.7 mM and 17.7 mM and 13.1 mM
- AUC(0-120 min) of blood glucose ([1]; Insulin glargine 5 U/kg, individual animal, in mM·min (unit assumed)): 2864 and 3072 and 3731 and 2489 and 3047 and 2409
- blood glucose 0 min [1, 5]: 27.55 mM
- blood glucose 0 min [1, 7]: 31.1 mM and 29.3 mM and 25.9 mM and 28.3 mM and 25.3 mM and 25.4 mM
- blood glucose 15 min [1, 8]: 26.68 mM
- blood glucose 30 min [1, 8]: 14.68 mM
- blood glucose 60 min [1, 8]: 7.65 mM
- blood glucose 120 min [1, 8]: 5.50 mM
- blood glucose 180 min [1, 8]: 9.95 mM
- blood glucose 240 min [1, 8]: 20.18 mM
- AUC(0-120 min) of blood glucose ([1]; Insulin glargine 10 U/kg, group MEAN, n=6, in mM·min (unit assumed)): 3986
- AUC(0-120 min) of blood glucose [1, 9]: significant reduction of blood glucose
- blood glucose 120 min [1, 9]: 5.50 ± 2.74 mM
- blood glucose 180 min [1, 9]: 9.95 ± 5.22 mM
- blood glucose 15 min [1, 10]: 24.4 mM (2×) and 23.6 mM and 30.3 mM and 29 mM and 28.4 mM
- blood glucose 30 min [1, 10]: 17.3 mM and 10.6 mM and 3.1 mM and 11.1 mM and 26.1 mM and 19.9 mM
- blood glucose 60 min [1, 10]: 9.6 mM and 5 mM and 7 mM and 5.2 mM and 13.3 mM and 5.8 mM
- blood glucose 120 min [1, 10]: 10.8 mM and 4.2 mM and 5.4 mM and 3 mM and 5.3 mM and 4.3 mM
- blood glucose 180 min [1, 10]: 19.3 mM and 9.4 mM and 6.1 mM and 5.8 mM and 6.7 mM and 12.4 mM
- blood glucose 240 min [1, 10]: 26.4 mM and 16.1 mM and 15.4 mM and 14.3 mM and 19.3 mM and 29.6 mM
- AUC(0-120 min) of blood glucose ([1]; Insulin glargine 10 U/kg, individual animal, in mM·min (unit assumed)): 3986 and 2308 and 2209 and 1991 and 3146 and 3254
- blood glucose 0 min [1, 8]: 27.77 mM
- blood glucose 0 min [1, 10]: 26.7 mM and 25.5 mM and 29 mM and 24.6 mM and 30.2 mM and 30.6 mM
- blood glucose after a single administration (in words) ([1]; STZ-induced hyperglycemic mice, single s.c. administration): significantly reduced blood glucose
- body weight change Day 0 ([2]; group MEAN): 0.0 g
- body weight change Day 0 ([2]; individual animal): 0.0 g
- body weight change Day 4 ([2]; group MEAN): 0.0 g
- body weight change Day 7 ([2]; group MEAN): 0.7 g
- body weight change Day 8 ([2]; group MEAN): 0.7 g
- body weight change Day 10 ([2]; group MEAN): 0.8 g
- body weight change Day 12 ([2]; group MEAN): 0.7 g
- body weight change Day 14 ([2]; group MEAN): 1.2 g
- body weight change Day 16 ([2]; group MEAN): 1.3 g
- body weight change Day 18 ([2]; group MEAN): 1.6 g
- body weight change Day 20 ([2]; group MEAN): 1.7 g
- body weight change Day 22 ([2]; group MEAN): 1.7 g
- body weight change Day 24 ([2]; group MEAN): 1.8 g
- body weight change Day 26 ([2]; group MEAN): 2.4 g
- body weight change Day 28 ([2]; group MEAN): 2.4 ± 0.4 g and 2.4 g
- body weight change Day 4 ([2]; individual animal): -0.2 g and 0.0 g and 0.6 g and -0.1 g and 0.3 g and -0.4 g
- body weight change Day 7 ([2]; individual animal): 0.2 g and 0.7 g and 1.0 g (2×) and 0.8 g and 0.5 g
- body weight change Day 8 ([2]; individual animal): 0.0 g and 1.1 g and 0.6 g and 0.7 g and 1.3 g and 0.4 g
- body weight change Day 10 ([2]; individual animal): 0.1 g and 1.0 g (2×) and 0.7 g and 1.1 g and 0.8 g
- body weight change Day 12 ([2]; individual animal): 0.2 g and 0.9 g and 0.4 g and 0.8 g and 1.3 g and 0.6 g
- body weight change Day 14 ([2]; individual animal): 0.3 g and 1.3 g and 0.8 g (2×) and 2.0 g and 1.9 g
- body weight change Day 16 ([2]; individual animal): 0.7 g and 1.3 g and 1.7 g (2×) and 1.0 g
- body weight change Day 18 ([2]; individual animal): 0.9 g and 1.2 g and 2.4 g (2×) and 1.3 g
- body weight change Day 20 ([2]; individual animal): 1.0 g (2×) and 1.9 g and 2.3 g and 2.5 g
- body weight change Day 22 ([2]; individual animal): 1.2 g and 1.7 g and 2.1 g and 2.6 g and 1.0 g
- body weight change Day 24 ([2]; individual animal): 1.3 g and 1.9 g and 2.3 g and 2.7 g and 0.6 g
- body weight change Day 26 ([2]; individual animal): 1.5 g and 2.2 g and 3.3 g and 3.7 g and 1.2 g
- body weight change Day 28 ([2]; individual animal): 1.7 g and 2.3 g and 2.9 g and 3.8 g and 1.4 g
- weight gain on Day 28, IGlar alone vs combo (in words) ([2]; IGlar 5 U/kg vs IGlar 5 U/kg & Bei 0.05 mg/kg, 4-week treatment): induced weight gain significantly higher than the combinational therapy of beinaglutide and insulin glargine
- fasting blood glucose, Mean ([3]; group mean): 14.0 ± 2.43 mM and 14.0 mM
- fasting blood glucose ([3]; individual animal): 16.1 mM and 9.4 mM and 7.6 mM and 15.9 mM and 20.9 mM
- blood glucose based on the AUC during OGTT (in words) ([4]; Day 28, glucose 1 g/kg oral, Bei 0.1 mg/kg, IGlar 5 U/kg, or IGlar 5 U/kg & Bei 0.05 mg/kg multiple dosing): significantly reduced blood glucose based on the AUC
- OGTT blood glucose 0 min, MEAN ([4]; IGlar 5 U/kg, Day 28, group mean, 0 min): 13.98 mM
- OGTT blood glucose AUC, MEAN ([4]; IGlar 5 U/kg, Day 28, group mean, 0-120 min): 2390.25
- OGTT blood glucose 15 min, MEAN ([4]; IGlar 5 U/kg, Day 28, group mean, 15 min): 27.90 mM
- OGTT blood glucose 30 min, MEAN ([4]; IGlar 5 U/kg, Day 28, group mean, 30 min): 24.60 mM
- OGTT blood glucose 60 min, MEAN ([4]; IGlar 5 U/kg, Day 28, group mean, 60 min): 20.04 mM
- OGTT blood glucose 120 min, MEAN ([4]; IGlar 5 U/kg, Day 28, group mean, 120 min): 13.72 mM
- OGTT blood glucose 0 min ([4]; IGlar 5 U/kg, Day 28, individual animals, 0 min): 16.1 mM and 9.4 mM and 7.6 mM and 15.9 mM and 20.9 mM
- OGTT blood glucose AUC ([4]; IGlar 5 U/kg, Day 28, individual animals, 0-120 min): 2820.0 and 2205.0 and 2178.8 and 2133.0 and 2614.5
- OGTT blood glucose 15 min ([4]; IGlar 5 U/kg, Day 28, individual animals, 15 min): 33.3 mM and 25.4 mM and 24 mM and 25.9 mM and 30.9 mM
- OGTT blood glucose 30 min ([4]; IGlar 5 U/kg, Day 28, individual animals, 30 min): 27.9 mM and 23.4 mM and 23.1 mM and 23.3 mM and 25.3 mM
- OGTT blood glucose 60 min ([4]; IGlar 5 U/kg, Day 28, individual animals, 60 min): 23 mM and 18.6 mM and 19 mM and 16.4 mM and 23.2 mM
- OGTT blood glucose 120 min ([4]; IGlar 5 U/kg, Day 28, individual animals, 120 min): 17.9 mM and 13 mM and 12.9 mM and 12.1 mM and 12.7 mM
